Molecular target: transcription apparatus of the influenza virus (Influenza A virus, UniProt P03433)
Assay: in vitro influenza transcription assay
Type: biochemical

| SMILES | IC50 [µM] | IC50 in flu transcription assay (compared with the natural product) |
| --- | --- | --- |
| COc1ccc(/C=C2\N=C(CC(C)C)C(=O)N(O)C2=O)cc1 [Example 12, 1-(N-hydroxy)-3-(2-methyl-propyl)-5-(Z-p-methoxybenz-1-enyl)-2,6-diketopiperazine-3,4-ene] | 0.8 |  |
| CC(C)CC1=N/C(=C\c2ccc(F)cc2)C(=O)N(O)C1=O [Example 9, 1-(N-hydroxy)-3-(2-methyl-propyl)-5-(Z-p-fluorobenz-1-enyl)-2.6-diketopiperazine-3.4-ene] | 0.9 |  |
| CC(C)/C=C1\N=C(CC(C)C)C(=O)N(O)C1=O [Compound I, 1-(N-hydroxy)-3-(2-methyl-propyl)-5-(2-methyl-Z-prop-1-enyl)-2,6-diketopiperazine-3,4-ene] | 5 | same IC50 |
| COc1ccc(/C=C2\N=C(Cc3ccccc3)C(=O)N(O)C2=O)cc1 [Example 14, 1-(N-hydroxy)-3-(benzyl)-5-(Z-p-methoxybenz-1-enyl)-2,6-diketopiperazine-3,4-ene] | 2.8 |  |
| O=C1C(Cc2ccccc2)=N/C(=C\c2ccc(F)cc2)C(=O)N1O [Example 15A, 1-(N-hydroxy)-3-(benzyl)-5-(Z-p-fluoro-benz-1-enyl)-2,6-diketopiperazine-3,4-ene] | 3.5 |  |
| CC(C)CC1NC(Cc2ccc(F)cc2)C(=O)N(O)C1=O (centres unmarked) [Example 16] | 85 |  |
| CC(C)CC1=N/C(=C\c2ccccc2)C(=O)N(O)C1=O [Example 8, 1-(N-hydroxy)-3-(2-methyl-propyl)-5-(Z-benz-1-enyl)-2.6-diketopiperazine-3,4-ene] | 4.8 |  |
| CC(C)CC1=N/C(=C\c2cccc(F)c2)C(=O)N(O)C1=O [Example 11, 1-(N-hydroxy)-3-(2-methyl-propyl)-5-(Z-m-fluorobenz-1-enyl)-2,6-diketopiperazine-3,4-ene] | 1.5 |  |
| CC(C)CC1=N/C(=C\c2ccccc2F)C(=O)N(O)C1=O [Example 10, 1-(N-hydroxy)-3-(2-methyl-propyl)-5-(Z-o-fluorobenz-1-enyl)-2,6-diketopiperazine-3,4-ene] | 7.3 |  |
| O=C1C(Cc2ccc(F)cc2)=N/C(=C\c2ccccc2)C(=O)N1O [Example 15B] | 6.5 |  |
